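Briefly, cells in 96-well plates were exposed to five compound concentrations for 48 h, and endpoints were estimated by linear interpolation. Abbreviation: GI50, concentration required for 50% inhibition of growth.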 The source made the active and inactive calls. Cut-off read from the data, not from the text of the source: active = GI50 up to about 1.1 µM and inactive = higher.
Experiments:
Assay in all cases: inhibition of tumour cell growth, NCI panel, 48 h
[1] = system: RXF 393
[2] = system: T47D
[3] = system: EKVX
[4] = system: NCI-H460
[5] = system: SN12C
[6] = system: OVCAR-4
[7] = system: MDA-MB-231
[8] = system: SF-268
[9] = system: PC-3
[10] = system: HCT-116
[11] = system: DU-145
[12] = system: BT-549
[13] = system: CCRF-CEM
[14] = system: LOX IMVI
[15] = system: HOP-92
[16] = system: SF-295
[17] = system: A498
[18] = system: ACHN
[19] = system: SNB-75
[20] = system: NCI-H226

SMILES | GI50 [1] | GI50 [2] | GI50 [3] | GI50 [4] | GI50 [5] | GI50 [6] | GI50 [7] | GI50 [8] | GI50 [9] | GI50 [10] | GI50 [11] | GI50 [12] | GI50 [13] | GI50 [14] | GI50 [15] | GI50 [16] | GI50 [17] | GI50 [18] | GI50 [19] | GI50 [20]
CNC(=O)c1nn[nH]c1Sc1c([N+](=O)[O-])ncn1C | > 100 µM (inactive) | > 100 µM (inactive) | > 100 µM (inactive) | > 100 µM (inactive) | > 100 µM (inactive) | > 100 µM (inactive) | > 100 µM (inactive) | > 100 µM (inactive) | > 100 µM (inactive) | > 100 µM (inactive) | > 100 µM (inactive) | > 100 µM (inactive) | > 100 µM (inactive) | > 100 µM (inactive) | > 100 µM (inactive) | > 100 µM (inactive) | > 100 µM (inactive) | > 100 µM (inactive) |  | 
O=C(Nc1ccccc1)c1cc2c(cc1Cl)Sc1nccn1S2(=O)=O | 17.7 µM (inactive) | 19.1 µM (inactive) | 24.2 µM (inactive) | 16.6 µM (inactive) | 46.1 µM (inactive) | 31.8 µM (inactive) | 27 µM (inactive) | 25.2 µM (inactive) | 20.1 µM (inactive) | 12.1 µM (inactive) | 18.9 µM (inactive) | 19.7 µM (inactive) | 17.3 µM (inactive) | 9.2 µM (inactive) | 2.58 µM (inactive) | 41.5 µM (inactive) | 18.5 µM (inactive) | 41.3 µM (inactive) | 17.7 µM (inactive) | 
CC(C)(C)c1cc2c(O)c(c1)C(c1ccccc1)c1cc(C(C)(C)C)cc(c1O)Cc1cc(C(C)(C)C)cc(c1O)C(c1ccccc1)c1cc(C(C)(C)C)cc(c1O)C2 (stereo not drawn) | > 100 µM (inactive) | > 100 µM (inactive) | > 100 µM (inactive) | > 100 µM (inactive) | > 100 µM (inactive) | > 100 µM (inactive) | > 100 µM (inactive) | > 100 µM (inactive) | > 100 µM (inactive) | > 100 µM (inactive) | > 100 µM (inactive) | > 100 µM (inactive) | 44.9 µM (inactive) | > 100 µM (inactive) | > 100 µM (inactive) | > 100 µM (inactive) | > 100 µM (inactive) | > 100 µM (inactive) |  | 
CO/C(N)=C(C#N)/N=C/c1ccc2ccccc2c1 | > 100 µM (inactive) | 8.73 µM (inactive) | 64.3 µM (inactive) |  | > 100 µM (inactive) |  | 19.5 µM (inactive) | > 100 µM (inactive) | 19.9 µM (inactive) | 76.2 µM (inactive) | > 100 µM (inactive) | 18.5 µM (inactive) | 24.8 µM (inactive) | 33.2 µM (inactive) | 34.5 µM (inactive) | 33.2 µM (inactive) | 33 µM (inactive) | 15.9 µM (inactive) | 78.9 µM (inactive) | > 100 µM (inactive)
CCOC(=O)c1nc2cc(C(F)(F)F)ccc2nc1Nc1cc(OC)c(OC)c(OC)c1 | > 100 µM (inactive) | > 100 µM (inactive) | > 100 µM (inactive) | > 100 µM (inactive) | > 100 µM (inactive) |  | > 100 µM (inactive) | > 100 µM (inactive) | > 100 µM (inactive) | > 100 µM (inactive) | > 100 µM (inactive) | > 100 µM (inactive) | > 100 µM (inactive) | > 100 µM (inactive) | > 100 µM (inactive) | > 100 µM (inactive) | > 100 µM (inactive) | > 100 µM (inactive) | > 100 µM (inactive) | > 100 µM (inactive)
O=[N+]([O-])/C(C(Cl)=C(Cl)Cl)=C(/Sc1ccccc1)N1CCOCC1 | 1.92 µM (inactive) | 3.02 µM (inactive) | 9.75 µM (inactive) | 5.05 µM (inactive) | 4.76 µM (inactive) | 11.6 µM (inactive) | 5.12 µM (inactive) | 4.46 µM (inactive) | 6.01 µM (inactive) | 1.67 µM (inactive) | 12.6 µM (inactive) | 4.76 µM (inactive) | 1.83 µM (inactive) | 1.53 µM (inactive) | 2.34 µM (inactive) | 19.5 µM (inactive) | 14.6 µM (inactive) | 4.82 µM (inactive) |  | 11.4 µM (inactive)
COc1cc(OC)cc(OCc2ccc3nc(-c4ccccc4)c(Cl)nc3c2)c1 |  | 24.7 µM (inactive) | 27 µM (inactive) | 37 µM (inactive) | 40.7 µM (inactive) | 24.1 µM (inactive) | 7.16 µM (inactive) | 30.5 µM (inactive) | 37.6 µM (inactive) | 29 µM (inactive) | 52.7 µM (inactive) | 31.3 µM (inactive) | > 100 µM (inactive) | 43.1 µM (inactive) | 18.8 µM (inactive) | 22.5 µM (inactive) | 35 µM (inactive) | 17.7 µM (inactive) | 15.8 µM (inactive) | 
Cn1c(COC(=O)NC2CCCCC2)c(COC(=O)NC2CCCCC2)c2ccc3cc(C=O)ccc3c21 | 51.1 µM (inactive) | > 100 µM (inactive) | > 100 µM (inactive) | > 10 µM (inactive) | > 100 µM (inactive) |  | 85.1 µM (inactive) | 37.5 µM (inactive) | > 100 µM (inactive) | > 100 µM (inactive) | > 100 µM (inactive) | > 100 µM (inactive) | > 100 µM (inactive) | > 100 µM (inactive) | 32 µM (inactive) | > 100 µM (inactive) | > 100 µM (inactive) | > 100 µM (inactive) | 18.6 µM (inactive) | > 100 µM (inactive)
C=CC(O)(CBr)CCC(Br)C(C)(C)Cl (stereo not drawn) | > 10 µM (inactive) | > 10 µM (inactive) | > 10 µM (inactive) | > 10 µM (inactive) | > 10 µM (inactive) | > 10 µM (inactive) | > 10 µM (inactive) | > 10 µM (inactive) | > 10 µM (inactive) | > 10 µM (inactive) | > 10 µM (inactive) | > 10 µM (inactive) | > 10 µM (inactive) |  | > 10 µM (inactive) | > 10 µM (inactive) | > 10 µM (inactive) | > 10 µM (inactive) | > 10 µM (inactive) | > 10 µM (inactive)
OCC(CCc1c[nH]c2ccccc12)c1c[nH]c2ccccc12 (stereo not drawn) | 15.3 µM (inactive) | 16 µM (inactive) | 14.7 µM (inactive) | 14.6 µM (inactive) | 17.5 µM (inactive) | 17.9 µM (inactive) | 14.1 µM (inactive) | 17.3 µM (inactive) | 17.2 µM (inactive) | 15.5 µM (inactive) | 16.7 µM (inactive) | 16.5 µM (inactive) |  | 14.3 µM (inactive) | 15.2 µM (inactive) | 16.7 µM (inactive) | 15.2 µM (inactive) | 17.9 µM (inactive) | 19.7 µM (inactive) | 18.1 µM (inactive)
COC(=O)c1c(C(=O)OC)c(C(c2ccccc2)c2ccccc2)n(-c2ccccc2)c1Cl | > 10 µM (inactive) | 4.74 µM (inactive) | 5.75 µM (inactive) | > 10 µM (inactive) | > 10 µM (inactive) | 6.49 µM (inactive) | > 10 µM (inactive) | > 10 µM (inactive) | 3.09 µM (inactive) | 3.7 µM (inactive) | > 10 µM (inactive) | 7.16 µM (inactive) | 4.61 µM (inactive) |  | 9.14 µM (inactive) | 5 µM (inactive) | > 10 µM (inactive) | 6.25 µM (inactive) |  | > 10 µM (inactive)
CCOC(=O)C(NC(=O)c1ccccc1)(Nc1ccc(S(=O)(=O)Nc2ccc(OC)nn2)cc1)C(F)(F)F (stereo not drawn) | > 100 µM (inactive) | > 100 µM (inactive) | > 100 µM (inactive) | > 100 µM (inactive) | > 100 µM (inactive) | > 100 µM (inactive) | > 100 µM (inactive) | > 100 µM (inactive) | > 100 µM (inactive) | > 100 µM (inactive) | > 100 µM (inactive) | > 100 µM (inactive) | > 100 µM (inactive) | > 100 µM (inactive) | > 100 µM (inactive) | > 100 µM (inactive) |  | > 100 µM (inactive) | > 100 µM (inactive) | > 100 µM (inactive)
CC(C)(C)OC(=O)N1[C@@H]2Cc3ccc(N)cc3[C@@]1(C)c1ccccc12 | 15 µM (inactive) | 17.7 µM (inactive) | 38.3 µM (inactive) | 21.2 µM (inactive) | 16.8 µM (inactive) | 29.8 µM (inactive) | 27.7 µM (inactive) | 37.3 µM (inactive) | 29.9 µM (inactive) | 18.7 µM (inactive) | 30.3 µM (inactive) | 18.7 µM (inactive) | 25.8 µM (inactive) | 19.6 µM (inactive) | 23.9 µM (inactive) | 28.1 µM (inactive) | 30.5 µM (inactive) | 36.8 µM (inactive) |  | 
Nc1nc(N)c2ncn(Cc3ccccc3)c2n1 | > 100 µM (inactive) | > 100 µM (inactive) | 21.8 µM (inactive) |  | > 100 µM (inactive) | > 100 µM (inactive) | > 100 µM (inactive) | > 100 µM (inactive) | > 100 µM (inactive) | > 100 µM (inactive) | > 100 µM (inactive) | > 100 µM (inactive) | > 100 µM (inactive) |  | > 100 µM (inactive) | > 100 µM (inactive) | > 100 µM (inactive) | > 100 µM (inactive) | 0.0295 µM (active) | > 100 µM (inactive)
Cc1ccc(S(=O)(=O)n2cc(C#N)c(C#N)c2)cc1 | 32.3 µM (inactive) | 26.4 µM (inactive) | 30.2 µM (inactive) | 36.5 µM (inactive) | 29.1 µM (inactive) | 74 µM (inactive) | 42.6 µM (inactive) | 26.6 µM (inactive) | 28.9 µM (inactive) | 31 µM (inactive) | 31.4 µM (inactive) | 20.6 µM (inactive) | 30.2 µM (inactive) | 22.8 µM (inactive) | 31 µM (inactive) | 23 µM (inactive) | 24.7 µM (inactive) | 19.3 µM (inactive) | 32.7 µM (inactive) | 
